These results are taken from article PMC5382548 (Scientific Reports, 2015).

By IC50 is commonly meant the concentration at which inhibition is half-maximal. Read a low IC50 as inhibition by little substance. By ΔTm is commonly meant the change in melting temperature against a reference sample.

The structures appear in SMILES notation. “And” between values parts separate entries of the source, which are not always exact repeats. Identical values can stand only once.

In experiment [1] the test system is double-stranded DNA (26ds). Briefly: Spectrofluorimetric titration with 26ds DNA. In kind it is binding. The conditions noted are these: for Apparent association constant Ka (26ds): ligand 1 μM, K-cacodylate pH 7.4, 60 mM K+, 25°C; for Hill constant h (26ds): one-site saturation binding Hill slope model. The procedure: To characterize the binding of IQc to DNA structures, spectrofluorimetric titration assays were performed with the non-substituted (2a), mono-alkyldiamine (2d) and di-alkyldiamine (3e) derivatives using un-labelled KRAS21R G4 and 26ds-DNA. […] Their fluorescence intensity was proportional to concentration up to 10 μM. […] The fluorescence titration data (Figure 4) was fitted to the Scatchard model[25] (Figure 4, insets). […] Scatchard plots of 2d and 3e (Figure 4b–c, insets) are all concave-down nonlinear curves, which may denote different positive cooperative binding sites in G4, with more than one equivalent and non-independent binding sites. […] Therefore, association constants for 2d and 3e were obtained from the one-site saturation binding Hill slope model (Figure 4b–c). These are apparent binding constants, i.e. they are macroscopic Ka which reflect the total binding.
Figure 4 Fluorescence data of (a) 2a, (b) 2d, and (c) 3e (1 μM) in K-cacodylate buffer (pH 7.4, containing 60 mM K^+) at 25°C, titrated with KRAS21R and HT21 G4s, and 26ds, fitted to the saturation binding equations and Scatchard model (insets).
Fluorescence data were collected with a λex of 290 nm and a λem around 475 nm for 2d and 3e, and a λex of 275 nm and a λem around 460 for 2a. Test compounds were prepared as 1 mM in HPLC-grade water (10% DMSO) stock solutions. The rest of the dilutions were performed using K-cacodylate buffer (pH = 7.4, containing 60 mM K^+). The G4 single-strand oligonucleotide sequences were initially diluted from the storage solution (100 μM) with K-cacodylate, to a stock solution at 25 μM. The titration data were obtained by adding aliquots of previously annealed G4 (heating to 95°C for 10 min, followed by slow cooling to RT) to a solution of the indolo[3,2-c]quinoline ligand (1 μM) in K-cacocylate buffer at 25°C (additional details in Supplementary Information).
Figure S7. Fluorescence titrations of 1 μM indolo[3,2-c]quinoline 2d (1µM) with KRAS21R G4 and 26ds DNA in K-cacodylate buffer pH 7.4, containing 60 mM K+ at 25 °C.
Concentration of DNA increase from the top to the bottom (grey lines) Excitation […]
Figure S8. Fluorescence titrations of 1 μM indolo[3,2-c]quinoline 3e (1µM) with KRAS21R […]
The titration data obtained were used to construct Scatchard plots with the concentration of bound and free ligand (Cb and Cf, respectively). […]
number of moles of ligand bound to 1 mol of G4 (r = Cb/CDNA) were calculated.
Saturation binding isotherms were represented as Scatchard plots, by plotting r/Cf versus r and evaluated according to the model of McGhee and von Hippel. Dissociation constants were determined by fitting the titration experimental data to one-site saturation binding equation or to one-site saturation binding to the Hill slope equation supplied with the GraphPad PRISM software (GraphPad, Version 5.00, San Diego, CA).
Association constants (Ka) were calculated from dissociation constants (Kd). Scatchard lines represented in the Scatchard plots were calculated from the data fitting to the binding equations (x = 0, y = Fmax/Kd; x = Fmax , y = 0; slope = -Ka). […]

The subject of a further experiment is A594 (lung). Briefly: SRB short-term cytotoxicity assay, A594. It is filed as cell-based, human. The conditions noted are these: for IC50: Homo sapiens, 96 h. The procedure: Short-term anti-proliferative assays were carried out by two different assays using a panel of human cancer and non-malignant human cell lines. […] The transformed human embryonic kidney cell line HEK293T (wt KRAS) was sensitive to all tested drugs, including TMPyP4, a cationic porphyrin established as a G4 ligand, as well as the anticancer drug 5-fluorouracil (5-FU).
Human cell lines, breast carcinoma (MCF7), lung carcinoma (A549), pancreatic cancer (MIA PaCa2, Panc-1), immortalised telomerase-negative human lung fibroblast (ALT) and normal human lung fibroblast (WI-38), were all purchased from American Type Cell Culture (ATCC). Cell lines were maintained in appropriate medium supplemented with 10% fetal bovine serum (Invitrogen, UK), 2 mM L-glutamine (Invitrogen, Netherlands), and other components as specified by the suppliers. All cell lines were maintained at 37°C, 5% CO2, and routinely passaged. Short-term growth inhibition was measured using the SRB assay as described previously[43] (additional details described in Supplementary Information). […]
Sulforhodamine B (SRB) short-term cytotoxicity assay
Cells were seeded at appropriate densities into the wells of 96 well plates in their corresponding medium and incubated overnight to allow the cells to attach. Subsequently cells were exposed to various concentrations of freshly made solutions of drugs and incubated for 96 h. The cells were subsequently fixed with ice-cold trichloacetic acid (TCA) (10%, w/v) for 30 min and stained with 0.4% SRB dissolved in 1% acetic acid for 15 min.
All incubations were carried out at room temperature except for TCA fixation, which was at 4 °C. The IC50 value, the concentration required to inhibit cell growth by 50%, was determined from the mean absorbance at 540 nm for each drug concentration expressed as a percentage of the control untreated well absorbance. (Performed at School of Pharmacy, University College of London). […]
(#sc-30/sc-126; Santa Cruz Biotechnology Inc., Santa Cruz, CA, USA). Finally, immunoblots were incubated with secondary anti-mouse antibody conjugated with horseradish peroxidase (BioRad) for 3 h at room temperature. The membranes were processed for protein detection using Super Signal substrate (Pierce, Rockford, IL, USA). β-Actin (#A-5441, Sigma–Aldrich) was used as a loading control. Steady-state protein levels were expressed as mean ±SEM from at least three independent experiments.

The subject of experiment [2] is F21T (DNA, G4) GGGTTAGGGTAGGGTTAGGG
Briefly: FRET melting. To be noted: 60 mM K+; K-cacodylate pH 7.4; 0.2 μM DNA, 1 μM compound; SD ≤ 0.2.

With `Cn1cc2c3ccccc3nc-2c2cc(Br)ccc21` [2a, 2-bromo-5-methyl-indolo[3,2-c]quinoline], the “Apparent association constant Ka (26ds)” value in experiment [1] was 0.8 × 10^6 M^−1 and 0.8/-- × 10^6 M^−1. Besides, in the experiment with A594 (lung), the “Selectivity index SI = IC50(WI-38)/IC50(A594)” value is 9.3 and the IC50 turned out to be 670 nM. In addition, in experiment [2], the ΔTm is 5.6 °C.
As for `CCN(CC)CCCNc1ccc2c(c1)c1[nH]c3ccccc3c1c[n+]2C` [2d], in experiment [1], the “Apparent association constant Ka (26ds)” value was found to be 2.8e+06 M⁻¹ and the “Hill constant h (26ds)” value was found to be 1.5. This compound showed an IC50 in the experiment on A594 (lung) of 400 nM. Besides, the ΔTm in experiment [2] turned out to be 17.7 °C.
With `CCN(CC)CCCNc1ccc2c(c1)[nH]c1c2c[n+](C)c2ccc(NCCCN(CC)CC)cc12.[Cl-]` [3e], in experiment [1], the “Apparent association constant Ka (26ds)” value was 3.2e+06 M⁻¹ and the “Hill constant h (26ds)” value is reported as 2.5. For the same compound, in the experiment with A594 (lung), the “Selectivity index SI = IC50(WI-38)/IC50(A594)” value is reported as 7.0 and half-maximal inhibition (IC50) was put at 1450 nM. In experiment [2], the ΔTm is 30.7 °C.
